The values that follow come from the Bradley open melting point set (2014).

In general, melting point refers to the temperature of the solid-liquid transition.

Where “and” joins values, the source holds several entries; their conditions need not be identical. Equal entries are not always repeated.

For the compound `COC1=C(OC)/C(=C\CN=[N+]=[N-])OC1=O` [(5E)-5-(2-azidoethylidene)-3,4-dimethoxyfuran-2(5H)-one], the melting point amounted to 56 °C.

As to `CCCN(CCC)S(=O)(=O)c1ccc(C(=O)O)cc1` [probenecid], the melting point stood at 199 °C.

Compound `OC[C@@H](O)[C@@H](O)[C@H](O)[C@H](O)CO` [D-Mannitol] gave a melting point of 167 °C.

`Cc1c2ccccc2cc2ccccc12` [9-Methylanthracene] registered a melting point of 78 °C.

Compound `O=C1CCc2ccc(F)cc21` [6-fluoro-1-indanone] yielded a melting point of 58 °C.

Compound `O=C(O)/C=C/c1ccccc1` [(2E)-3-Phenylacrylic acid] displayed a melting point of 133 °C.

`OC[C@@H](O)[C@H](O)[C@@H](O)CO` [xylitol] gave a melting point of 94 °C.

In the case of `Nc1ccc([N+](=O)[O-])cc1Cl` [2-Chloro-4-nitroaniline], the melting point is 108 °C.

As to `CCCCOC(=O)c1ccc(O)cc1` [butyl p-hydroxybenzoate], the melting point was 69 °C.

In turn, `CCC1(c2ccccc2)C(=O)NC(=O)NC1=O` [Phenobarbital] yielded a melting point of 174 °C.

`CC12CCC3C(CCC4CC(O)CCC43C)C1CCC2=O` (configuration not stated) [3-Hydroxyandrostan-17-one] registered a melting point of 174 °C.

Turning to `O=C1C(c2ccccn2)=Nc2ccccc21` [2-pyridin-2-yl-3H-indol-3-one], the melting point worked out at 186 °C.

Compound `CS(N)(=O)=O` [methanesulfonamide] displayed a melting point of 90 °C.

Regarding `CCc1cccc(C)c1N(C(=O)CCl)C(C)COC` (configuration not stated) [metolachlor], the melting point was 25 °C.

`CC1(C)[C@@H]2CC[C@]13CS(=O)(=O)N[C@@H]3C2` [(1S,2R)-10,2-camphorsultam] registered a melting point of 183 °C.

As for `CC(C)(CO)CO` [2,2-dimethyl-1,3-propanediol], the melting point was 128 °C and 126 °C.

Take `CCCCCCCCCCCCCCCCO` [Hexadecan-1-ol]: the melting point came to 50 °C.

`O=C(C(=O)c1ccccc1)c1ccccc1` [benzil] registered a melting point of 95 °C.

Turning to `c1ccc2c(c1)ccc1c3ccccc3ccc21` [Chrysene], the melting point amounted to 255 °C.

With `c1ccc2c(c1)cc1ccc3cccc4ccc2c1c34` [benzo[a]pyrene], the melting point was 176 °C and 179 °C.

The compound `Cc1ccccc1CO` [2-methylbenzyl alcohol] gave a melting point of 35 °C.

In turn, `CC(C)(C)OC(=O)Nc1ccc(C#N)cn1` [2-(boc-amino)-5-cyanopyridine] returned a melting point of 173 °C.

Turning to `O=Cc1cc2c(cc1[N+](=O)[O-])OCO2` [6-nitropiperonal], the melting point was found to be 95 °C.

The compound `O=C(Cl)c1ccc(F)cc1` [4-fluorobenzoyl chloride] displayed a melting point of 10 °C.

On to `NC(c1ccccc1)c1ccccc1` [benzhydrylamine], for which the melting point came out at 12 °C.

For the compound `OC1[C@H]2CC[C@@H]1[C@H]1C=C[C@@H]2O1` (stereo partly drawn) [(1R,2S,5R,6S)-9-oxatricyclo[4.2.1.1~2,5~]dec-7-en-10-ol], the melting point stood at 122 °C.

`COC(=O)c1ccc(I)c([N+](=O)[O-])c1` [methyl 4-iodo-3-nitrobenzoate] returned a melting point of 103 °C.

On to `C/C=C/CCC` [trans-2-hexene], for which the melting point is -99 °C.

The compound `N#CCc1ccc([N+](=O)[O-])cc1` [4-nitrophenylacetonitrile] returned a melting point of 116 °C.

Consider `Cc1ccc(/C=C(/C#N)c2nc(-c3ccccc3)cs2)cc1`, for which the melting point amounted to 79 °C.

`Cc1cc(=O)oc2cc(O)ccc12` [7-Hydroxy-4-methyl-2H-chromen-2-one] returned a melting point of 191 °C.

The compound `Nc1ccc2ncsc2c1` [6-aminobenzothiazole] had a melting point of 88 °C.

Regarding `Oc1c(Cl)cccc1Cl` [2,6-dichlorophenol], the melting point was 67 °C and 68.5 °C and 65 °C (2×).

`OB(O)c1ccnc(Cl)c1Cl` [2,3-dichloropyridine-4-boronic acid] yielded a melting point of 137 °C.

`CC(N)C(=O)O` (configuration not stated) [alanine]: the melting point came out at 292 °C.

With `O=C(O)c1c(P(c2ccccc2)c2ccccc2)ccc2ccccc12` [2-diphenylphosphino-1-naphthoic acid], the melting point turned out to be 191 °C.

With `CC(C)NC(C)C` [diisopropylamine], the melting point was -61 °C.

`O=C(/C=C/c1ccccc1)c1ccc(O)cc1` [4'-hydroxychalcone] came in with a melting point of 176 °C.

`C=CCCl` [allyl chloride] gave a melting point of -135 °C.

Consider `C=CCn1c(=O)n(CC=C)c(=O)n(CC=C)c1=O` [1,3,5-Triallyl-1,3,5-triazinane-2,4,6-trione], for which the melting point came to 24 °C.

Consider `CCCCCCCCCCCC` [dodecane], for which the melting point is -10 °C.

Compound `COc1c(N2C[C@@H]3CCCN[C@@H]3C2)c(F)cc2c(=O)c(C(=O)O)cn(C3CC3)c12` [Moxifloxacin] registered a melting point of 240 °C.

The compound `Cc1ccc(C(=O)c2cc(Cl)cc(Cl)c2)c(C)c1` [3,5-dichloro-2',4'-dimethylbenzophenone] had a melting point of 57 °C.

`C[C@]12CC[C@@H]3c4ccc(O)cc4CC[C@H]3[C@@H]1C[C@@H](O)[C@@H]2O` [Estriol] showed a melting point of 282 °C.

As for `Cc1c(C)c(/C=CC(C)=CC=CC(/C)=CC(=O)O)c(C)cc1OC` [Acitretin], the melting point was 229 °C.

The compound `N#Cc1ccc(C(N)=O)cc1` [4-cyanobenzamide] registered a melting point of 227 °C.

For `CC(=O)ON(/C=C1\C(=O)C2(C)CCC1C2(C)C)c1ccccc1` (configuration not stated), the melting point was found to be 163 °C.

`CC(C)OP(=O)(CCP(=O)(OC(C)C)OC(C)C)OC(C)C` [tetraisopropyl 1,2-ethylenediphosphonate] returned a melting point of 36 °C.

In turn, `CCc1nc(N)nc(N)c1-c1ccc(Cl)cc1` [Pyrimethamine] returned a melting point of 234 °C.

The compound `COc1ccc(C(=O)Cl)cc1` [4-Methoxybenzoyl chloride] had a melting point of 22 °C.

Take `CN(C)NC(=O)CCC(=O)O` [4-(2,2-Dimethylhydrazino)-4-oxobutanoic acid]: the melting point stood at 154 °C.

On to `COc1cc(C(=O)O)cc(OC)c1O` [syringic acid], for which the melting point came to 207 °C.

In turn, `O=C[C@H](O)[C@H](O)[C@H](O)CO` [D-Ribose] had a melting point of 82 °C.

`Cn1ncc(Br)c1N` [5-amino-4-bromo-1-methyl-1h-pyrazole] registered a melting point of 99 °C.

Compound `OB(O)c1cc2ccccc2s1` [benzo[b]thiophene-2-boronic acid] showed a melting point of 255 °C.

In turn, `N#Cc1ccc(Cl)c([N+](=O)[O-])c1` [4-chloro-3-nitrobenzonitrile] yielded a melting point of 100 °C.

Compound `CCCCCCCCCCCCS(=O)(=O)Cl` [1-dodecanesulfonyl chloride] showed a melting point of 41 °C.

`Cc1cc(C)c(CC(=O)O)c(C)c1` [mesitylacetic acid] registered a melting point of 169 °C.

`C=CCO` [Prop-2-en-1-ol] returned a melting point of -129 °C.

Take `O=C(O)COc1ccccc1Cl` [2-chlorophenoxyacetic acid]: the melting point was found to be 150 °C.

Compound `Cc1cccc(C(=O)O)c1` [m-toluic_acid] showed a melting point of 110 °C.

`CC(C)(C)OC(=O)N1CCS[C@H]1C(=O)O` [(S)-3-boc-thiazolidine-2-carboxylic acid]: the melting point was 92 °C.

In turn, `Nc1cccc2c(=O)[nH][nH]c(=O)c12` [5-Amino-2,3-dihydrophthalazine-1,4-dione] displayed a melting point of 319 °C.

As for `O=C(O)C(c1ccccc1)c1ccccc1` [diphenylacetic acid], the melting point turned out to be 147 °C.

The compound `CC(C(=O)O)c1ccc(-c2ccccc2)c(F)c1` (configuration not stated) [Flurbiprofen] registered a melting point of 110 °C.

Compound `CCCCCCCCCCCCCC(C)C` [2-Methylpentadecane] yielded a melting point of -7 °C.

Take `CC(O)CO` (configuration not stated) [1,2-propanediol]: the melting point was -60 °C.

`C=CCN=C=S` [allyl isothiocyanate] displayed a melting point of -80 °C.

The compound `O=C(O)C(Sc1ccccc1)c1ccccc1` (stereo not drawn) [alpha-(phenylthio)phenylacetic acid] gave a melting point of 100 °C.

With `O=C(O)c1cc(-c2ccc(F)cc2F)ccc1O` [diflunisal], the melting point amounted to 210 °C.

Turning to `OB(O)c1cc(-c2ccccc2)cc(-c2ccccc2)c1` [1,1':3',1''-terphenyl-5'-boronic acid], the melting point was 294 °C.

For `O=C2/N=C(\Nc1n(cnc12)COCCO)N` [acyclovir], the melting point came out at 257 °C.

Compound `OB(O)c1ccccc1Br` [2-bromobenzeneboronic acid] showed a melting point of 109 °C.

For the compound `CC(=O)Nc1ccc(C(=O)O)cc1` [4-acetamidobenzoic_acid], the melting point is 259 °C.

Consider `c1ccc(C(c2ccccc2)c2ccccc2)cc1` [1,1',1''-Methanetriyltribenzene], for which the melting point was found to be 94 °C.

Compound `Cn1nnc2ccccc21` [1-methyl-1h-benzotriazole] gave a melting point of 65 °C.

Compound `O=[N+]([O-])c1ccc(O)cc1` [4-nitrophenol] registered a melting point of 112 °C.

For `O=C(CBr)c1ccc2ccccc2c1` [2-(bromoacetyl)naphthalene], the melting point was 83 °C.

In the case of `Cc1cc(C)cc(C=O)c1` [3,5-dimethylbenzaldehyde], the melting point came to 9 °C.

On to `Nc1ccc(OCCCCCN2C(=O)c3ccccc3C2=O)cc1` [amphotalide], for which the melting point was determined as 113 °C.

`Nc1nc2c(ncn2[C@@H]2O[C@@H](CO)[C@H](O)[C@H]2O)c(=O)[nH]1` [Guanosine] had a melting point of 239 °C.

Compound `C[C@]12CC[C@@H]3c4ccc(O)cc4CC[C@H]3[C@@H]1CC[C@@H]2O` [Estradiol] registered a melting point of 176 °C.

In turn, `O=C(CCl)c1ccc(O)c(O)c1` [2-chloro-3',4'-dihydroxyacetophenone] yielded a melting point of 174 °C.

The compound `CC(=O)NS(=O)(=O)c1ccc(N)cc1` [Sulfacetamide] came in with a melting point of 182 °C.

Take `O=C(/C=C/c1ccc(-c2ccc([N+](=O)[O-])cc2)o1)c1ccccc1` [(2E)-3-[5-(4-Nitrophenyl)-2-furyl]-1-phenylprop-2-en-1-one]: the melting point was 158 °C.

For `Cc1ncc2n1-c1ccc(Cl)cc1C(c1ccccc1F)=NC2` [Midazolam], the melting point is 159 °C.

In the case of `CCCC(C)(COC(N)=O)COC(N)=O` [Meprobamate], the melting point was 105 °C.
